# What was measured:
# [1] = Cytotoxicity assay, PANC-1 (Cell Counting Kit-8); assay type: cell-based; conditions: PANC-1 human pancreatic carcinoma cells
# Description: (§1) Human dermal fibroblast cells (HDF, Zenbio, Inc., Durham, NC, USA) were cultured in Dulbecco’s Modified Eagle Medium/Nutrient Mixture F-12 medium (DMEM/F12, Gibco), human pancreatic carcinoma cells (PANC-1, DS Pharma Biomedical, Co., Ltd.) were cultured in DMEM (Gibco), and human colorectal adenocarcinoma cells (DLD-1, Taiho Pharmaceutical Company) were cultured in RPMI-1640 medium (FUJIFILM Wako Pure Chemicals). The culture mediums were supplemented with 10% (v/v) heat-inactivated fetal bovine serum (Gibco) and the cells were maintained at 37 °C under 5% CO2.
# (§2) HDF, PANC-1, and DLD-1 were seeded at 2.5 × 10^4 cells/well on a 96-well plate and incubated at 37 °C under 5% CO2 overnight. The cells were then washed with PBS and the medium was replaced with 99 µL of fresh media. Then, 1 µL of the compounds or DMSO was added to the respective wells. As controls, wells containing 1% (v/v) DMSO in column 1 and wells containing only the culture medium in column 12 were used as the negative and positive controls, respectively. After 48 h of incubation, the cells were washed with PBS, and 99 µL of fresh media was replaced, followed by the addition of 10 µL of Cell Counting Kit-8 (Dojindo) to each well. After 3 h of incubation, the absorbance was measured at 450 nm using a SpectraMax®® Paradigm®® Multi-Mode microplate Reader. The calculation of cell viability in the test well was based on the absorbance of control wells according to the manufacturer’s protocol. The mean of quadruplet values was used to calculate the CC50 using GraphPad Prism 8.0 software.
# PfDHODH = biological target: T1, PfDHODH (Plasmodium falciparum, UniProt Q08210); experiment: PfDHODH inhibition assay (DCIP end-point, 384-well); assay type: biochemical; conditions: recombinant tag-free PfDHODH, 20 min, serial dilutions 0.0007-22.7 µM; read-out: IC50 DHODH Pf
# T1 construct: encoding amino acid residues 158 to 569 fused to a His6-SUMO tag in its N-terminus; His6-SUMO (N, cleaved yes); made in house; host or cells: E. coli BL21 Star (DE3), pETSUMO/PfDHODH
# Description: The screening of 40,400 compounds was conducted in 384-well plates by adapting the end-point assay reported before. First, 1 µL of 200 µM compound was transferred into 384-well plates using a Benchtop Multi-Pipetter EDR-384SR (Biotech Co., Ltd., Tokyo, Japan). […] Next, 38 µL of assay mix (100 mM HEPES-NaOH pH 7.5, 5% (v/v) glycerol, 150 mM NaCl, 0.05% (v/v) Triton X-100, 15 µM decylubiquinone (dUQ, Sigma), 120 µM 2,6-dichlorophenolindophenol (DCIP, Sigma), and 20 nM PfDHODH) were dispensed into all wells and mixed at 600 rpm for 1 min by a MixMate®® (Eppendorf). The reaction was started by the addition of 5 µL of 1.8 mM L-DHO (Sigma) as the substrate and mixed as described above for 20 s. The absorbance at 600 nm was recorded using a SpectraMax®® Paradigm®® Multi-Mode Microplate Reader (Molecular Devices) before (t0) and after 20 min (t20) incubation at room temperature. The readings at t0 were subtracted from t20, and PfDHODH inhibition was calculated as the inhibition relative to the negative and positive controls in a single-point assay. Hits were defined as compounds inhibiting more than 50% of PfDHODH activity at 4.5 µM. The quality of the screening system was evaluated by calculating statistical parameters: Z′-factor, S/N, S/B, SW, and CV, as previously reported. The IC50 values of the hit compounds were determined using the same assay system containing serial dilutions of each compound in triplicates (22.7, 6.8, 2.27, 0.68, 0.227, 0.068, 0.023, 0.007, 0.002, 0.0007 µM) using GraphPad Prism 8.0 software (GraphPad Software Inc., San Diego, CA, USA).
# [2] = Cytotoxicity assay, HDF (Cell Counting Kit-8); assay type: cell-based; conditions: human dermal fibroblast (HDF) cells, normal human dermal fibroblasts
# Description: as §1, §2
# [3] = biological target: mammalian mitochondrial complexes I–III (Bos taurus, UniProt P00157+P03887+P17694+P42026); experiment: NADH-cytochrome c reductase (complexes I–III) activity assay; assay type: biochemical; conditions: bovine heart mitochondria, range tested 0.0007 to 22.7 µM; read-out: IC50 Mammalian Mitochondrial CI–III
# Description: (§3) Bovine heart mitochondria were prepared as previously described. The NADH-cytochrome c reductase (complexes I–III) and succinate-cytochrome c reductase (complexes II–III) activities were assayed in 384-well plates following an established protocol with small modifications. Complex I–III activity was assayed in a reaction mix containing 50 mM phosphate buffer pH 7.4, 2 mM KCN, 200 µM cytochrome c (cytochrome c from horse heart, Nacalai tesque), and 15 µg/mL mitochondria. Plates containing 1 µL serial dilutions of PfDHODH inhibitors were prepared and mixed with 38 µL of the reaction mix, as described above. The reaction was started by the addition of 5 µL of 2.6 mM NADH, and the assay was performed as described for PfDHODH, but at 550 nm and with 15 min of incubation. Complex II–III activity was assayed similarly to complex I–III activity but with 100 µM cytochrome c and 25 µg/mL mitochondria, and the reaction was started by 10 mM succinate. For both assays, DMSO and 5 µM ascochlorin were used as negative and positive controls, respectively. Assays were performed in triplicate.
# HsDHODH = biological target: T2, HsDHODH (Homo sapiens, UniProt Q02127); experiment: HsDHODH counter-assay; assay type: biochemical; conditions: purified recombinant HsDHODH, tested at 4.5 µM; read-out: IC50 DHODH Hs
# T2 construct: made in house
# Description: Selected hit compounds from PfDHODH screening were tested for potential inhibition against HsDHODH at 4.5 µM. The HsDHODH used in this study was purified as previously reported. The HsDHODH assay was performed similarly to that for PfDHODH, but in an assay mix consisting of 50 mM Tris-HCl pH 8.0, 0.1% (v/v) Triton X-100, 2 mM potassium cyanide (KCN, Wako), 60 µM dUQ, and 120 µM DCIP, with the reaction started by the addition of 200 µM L-DHO (final concentration) in triplicate. For this assay, DMSO was used as a negative control and 10 µM of lapachol was used as a positive control (100% inhibition). The relative inhibition was calculated as described above.
# [4] = biological target: mammalian mitochondrial complexes II–III (Bos taurus, UniProt P00157+P35720+Q3T189+Q95123); experiment: succinate-cytochrome c reductase (complexes II–III) activity assay; assay type: biochemical; conditions: bovine heart mitochondria, range tested 0.0007 to 22.7 µM; read-out: IC50 Mammalian Mitochondrial CII–III
# Description: as §3
# P. falciparum 3D7 = experiment: In vitro antimalarial assay (PfLDH/diaphorase); assay type: cell-based; conditions: Plasmodium falciparum, growth inhibition, 72 h, 0.0003 to 10 µM, read-out: EC50 Pf3D7
# Description: This assay was conducted using human red blood cells (RBC) following the guidelines of the ethics committee of Nagasaki University (permission no. 19). Human RBC was obtained from the Japanese Red Cross Society. The P. falciparum 3D7 strain was cultured in 2% hematocrit type O human RBC in RPMI-1640 medium (Gibco) supplemented with 23.8 mM sodium bicarbonate (Wako), 50 mg/L hypoxanthine (Wako), 25 mg/L gentamycin (Sigma), and 0.5% (w/v) AlbuMAX®® II (Gibco) under a 5% O2, 5% CO2, and 90% N2 atmosphere at 37 °C. Parasites were synchronized with 5% (w/v) D-sorbitol (Wako).
# Synchronized ring-stage parasites at 0.3% parasitemia and 2% hematocrit were cultured in a 384-well plate at 25 µL with test compounds at a final concentration in the range of 0.0003 to 10 µM with a fixed DMSO concentration of 0.4% (v/v). Parasite growth was monitored by the diaphorase-coupled P. falciparum lactate dehydrogenase (PfLDH) assay, as previously described. After 72 h, 70 µL of the assay solution (150 mM lithium L-lactate (Wako), 0.05 mg/mL 3-acetylpyridine adenine dinucleotide (Oriental Yeast Co., Ltd., Tokyo, Japan), 0.2 mg/mL nitro blue tetrazolium (Wako), 1 unit/mL diaphorase, and 100 mM Tris-HCl pH 8.0) were mixed with the parasite culture and incubated at room temperature for 40 min, and the generated nitro blue formazan was measured at 650 nm using a SpectraMax®® Paradigm®® Multi-Mode Microplate Reader. […] The EC50 was calculated using GraphPad Prism 8.0 software from the mean of quadruplets values.
# [5] = Cytotoxicity assay, DLD-1 (Cell Counting Kit-8); assay type: cell-based; conditions: DLD-1 human colorectal adenocarcinoma cells
# Description: as §1, §2
# T2 sequence (Q02127 whole entry): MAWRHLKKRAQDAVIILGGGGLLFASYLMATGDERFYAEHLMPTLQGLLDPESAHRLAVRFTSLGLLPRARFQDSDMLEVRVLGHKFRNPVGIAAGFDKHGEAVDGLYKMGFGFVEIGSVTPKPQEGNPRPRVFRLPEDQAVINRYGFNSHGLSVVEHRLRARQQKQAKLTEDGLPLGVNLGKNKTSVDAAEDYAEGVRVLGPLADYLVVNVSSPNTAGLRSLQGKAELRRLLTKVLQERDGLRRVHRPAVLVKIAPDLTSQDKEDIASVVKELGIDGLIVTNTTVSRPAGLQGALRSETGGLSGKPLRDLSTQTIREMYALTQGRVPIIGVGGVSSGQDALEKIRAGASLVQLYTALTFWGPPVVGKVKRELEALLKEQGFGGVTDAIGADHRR
# T1 sequence (Q08210 158-569): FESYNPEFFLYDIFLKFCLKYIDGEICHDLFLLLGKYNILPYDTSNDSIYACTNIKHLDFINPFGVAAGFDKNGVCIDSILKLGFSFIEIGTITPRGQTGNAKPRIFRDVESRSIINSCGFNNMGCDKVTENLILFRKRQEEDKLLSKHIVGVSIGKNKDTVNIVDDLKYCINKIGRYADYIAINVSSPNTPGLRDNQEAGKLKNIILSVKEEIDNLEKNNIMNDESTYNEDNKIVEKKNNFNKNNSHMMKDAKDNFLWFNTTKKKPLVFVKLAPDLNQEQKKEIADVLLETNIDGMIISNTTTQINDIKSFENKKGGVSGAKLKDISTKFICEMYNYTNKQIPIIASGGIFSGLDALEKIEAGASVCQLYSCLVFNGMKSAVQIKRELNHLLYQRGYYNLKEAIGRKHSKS
SMILES,EC50 at 48 h [1],IC50 (PfDHODH),EC50 at 48 h [2],IC50 [3],IC50 (HsDHODH),IC50 [4],EC50 (P. falciparum 3D7),EC50 at 48 h [5]
CC(=O)Nc1ccc2c(c1)SN1CCCN=C21 [Compound 28],> 10 µM,18500 ± 400 nM,> 10 µM,> 22.7 µM,> 4.5 µM,> 22.7 µM,> 10 µM,> 10 µM
Oc1ccc(-c2ccc3c(c2)SN2CCCN=C32)cc1 [Compound 38],> 10 µM,1810 ± 10 nM,> 10 µM,> 22.7 µM,> 4.5 µM,> 22.7 µM,> 10 µM,> 10 µM
"N=C1Sc2cc3ccccc3cc2C2=NCCCN12 [Compound 11, 2,3,4,6-tetrahydro-7-thia-1,5-diazatetraphen-6-imine]",> 10 µM,6420 ± 90 nM,> 10 µM,> 22.7 µM,> 4.5 µM,> 22.7 µM,> 10 µM,> 10 µM
CS(=O)(=O)Nc1cccc(-c2ccc3c(c2)SC(=N)N2CCCN=C32)c1 [Compound 24],> 10 µM,1940 ± 70 nM,> 10 µM,> 22.7 µM,> 4.5 µM,> 22.7 µM,> 10 µM,> 10 µM
N=C1Sc2cc(-c3cccc4ccccc34)ccc2C2=NCCCN12 [Compound 2],> 10 µM,850 ± 50 nM,> 10 µM,13.9 ± 2.14 µM,> 4.5 µM,> 22.7 µM,> 10 µM,> 10 µM
N=C1Sc2ccc(-c3ccccc3)cc2C2=NCCCN12 [Compound 9],> 10 µM,760 ± 80 nM,> 10 µM,> 22.7 µM,> 4.5 µM,> 22.7 µM,> 10 µM,> 10 µM
CC(=O)NCCCCCOc1cccc(-c2ccc3c(c2)SC(=N)N2CCCN=C32)c1 [Compound 26],> 10 µM,3490 ± 210 nM,> 10 µM,> 22.7 µM,> 4.5 µM,> 22.7 µM,> 10 µM,> 10 µM
CC(=O)Nc1cccc(-c2ccc3c(c2)SC(=N)N2CCCN=C32)c1 [Compound 23],> 10 µM,1850 ± 190 nM,> 10 µM,> 22.7 µM,> 4.5 µM,> 22.7 µM,> 10 µM,> 10 µM
Oc1cccc(-c2ccc3c(c2)SN2CCCN=C32)c1 [Compound 41],> 10 µM,1440 ± 50 nM,> 10 µM,> 22.7 µM,> 4.5 µM,> 22.7 µM,> 10 µM,> 10 µM
N=C1Sc2cc(-c3ccc(C(N)=O)cc3)ccc2C2=NCCCN12 [Compound 16],> 10 µM,1820 ± 80 nM,> 10 µM,> 22.7 µM,> 4.5 µM,> 22.7 µM,> 10 µM,> 10 µM
FC(F)(F)c1ccc2c(c1)SN1CCCN=C21 [Compound 29],> 10 µM,9710 ± 290 nM,> 10 µM,> 22.7 µM,> 4.5 µM,> 22.7 µM,> 10 µM,> 10 µM
c1cncc(-c2ccc3c(c2)SN2CCCN=C32)c1 [Compound 35],> 10 µM,1480 ± 70 nM,> 10 µM,> 22.7 µM,> 4.5 µM,> 22.7 µM,> 10 µM,> 10 µM
